Columns and labels:
Conditions in all cases: 72 h
Vero E6 [1] = assay: cell viability relative to DMSO; higher = less toxic
Calu-3 [2] = assay: as above
Vero E6 [3] = assay: relative viability EC50 (midpoint between 100% and the lowest measured viability); higher = less toxic
Calu-3 [4] = assay: as above
Vero E6 [5] = assay: drug sensitivity score (DSS) for viability; higher = more toxic; extreme values may be limits of the assay
Calu-3 [6] = assay: as above
Caco-2 [7] = assay: cell viability relative to DMSO; higher = less toxic
HepG2 [8] = assay: as above
Caco-2 [9] = assay: relative viability EC50 (midpoint between 100% and the lowest measured viability); higher = less toxic
Caco-2 [10] = assay: drug sensitivity score (DSS) for viability; higher = more toxic; extreme values may be limits of the assay
HepG2 [11] = assay: as above
U2OS [12] = assay: cell viability relative to DMSO; higher = less toxic
U2OS [13] = assay: relative viability EC50 (midpoint between 100% and the lowest measured viability); higher = less toxic
HepG2 [14] = assay: as above
U2OS [15] = assay: drug sensitivity score (DSS) for viability; higher = more toxic; extreme values may be limits of the assay

Row | Structure (SMILES) | cell viability (Vero E6 [1]; 1 nM) [%] | cell viability (Vero E6 [1]; 10 nM) [%] | cell viability (Vero E6 [1]; 100 nM) [%] | cell viability (Vero E6 [1]; 1000 nM) [%] | cell viability (Vero E6 [1]; 10000 nM) [%] | cell viability (Calu-3 [2]; 1 nM) [%] | cell viability (Calu-3 [2]; 10 nM) [%] | cell viability (Calu-3 [2]; 100 nM) [%] | cell viability (Calu-3 [2]; 1000 nM) [%] | cell viability (Calu-3 [2]; 10000 nM) [%] | relative viability EC50 (Vero E6 [3]) [µM] | relative viability EC50 (Calu-3 [4]) [µM] | drug sensitivity score (Vero E6 [5]) | drug sensitivity score (Calu-3 [6]) | cell viability (Caco-2 [7]; 1 nM) [%] | cell viability (Caco-2 [7]; 10 nM) [%] | cell viability (Caco-2 [7]; 100 nM) [%] | cell viability (Caco-2 [7]; 1000 nM) [%] | cell viability (Caco-2 [7]; 10000 nM) [%] | cell viability (HepG2 [8]; 1 nM) [%] | cell viability (HepG2 [8]; 10 nM) [%] | cell viability (HepG2 [8]; 100 nM) [%] | cell viability (HepG2 [8]; 1000 nM) [%] | cell viability (HepG2 [8]; 10000 nM) [%] | relative viability EC50 (Caco-2 [9]) [µM] | drug sensitivity score (Caco-2 [10]) | drug sensitivity score (HepG2 [11]) | cell viability (U2OS [12]; 1 nM) [%] | cell viability (U2OS [12]; 10 nM) [%] | cell viability (U2OS [12]; 100 nM) [%] | cell viability (U2OS [12]; 1000 nM) [%] | cell viability (U2OS [12]; 10000 nM) [%] | relative viability EC50 (U2OS [13]) [µM] | relative viability EC50 (HepG2 [14]) [µM] | drug sensitivity score (U2OS [15])
1 | OC[C@H]1O[C@@H](n2cnc3c(NC4CCCC4)nc(Cl)nc32)[C@H](O)[C@@H]1O [2-chloro-N6-cyclopentyladenosine] | 102 | 106 | 98.5 | 99.5 | 104 | 105 | 91.8 | 104 | 92.6 | 106 | > 10 | > 10 | 0 | 0 | – | – | – | – | – | – | – | – | – | – | – | – | – | – | – | – | – | – | – | – | –
2 | O=C1NC(=O)c2cc(Nc3ccccc3)c(Nc3ccccc3)cc21 | 96.3 | 99.2 | 98.6 | 97.4 | 86.3 | 108 | 96.9 | 106 | 98.5 | 89.3 | > 10 | > 10 | 0.3 | 0 | 92.3 | 101 | 91.7 | 102 | 82.5 | 109 | 106 | 105 | 100 | 56.4 | > 10 | 0.3 | 2.2 | – | – | – | – | – | – | – | –
3 | CC(C)[C@@H](C)/C=C/[C@@H](C)[C@H]1CC[C@H]2C3=CC=C4C[C@@H](O)CC[C@]4(C)[C@H]3CC[C@]12C [ergosterol] | 95.7 | 103 | 94.7 | 102 | 95.5 | – | – | – | – | – | > 10 | – | 0 | – | – | – | – | – | – | 92 | 102 | 96.5 | 104 | 95 | – | – | 0 | 103 | 96.7 | 97.8 | 94.7 | 102 | > 10 | > 10 | 0
4 | C[N+](C)(C)CCOC(N)=O [carbachol] | 101 | 98.4 | 97.3 | 97.2 | 99 | 95 | 102 | 94 | 97.8 | 100 | > 10 | > 10 | 0 | 0 | 93.6 | 98.2 | 106 | 99.1 | 106 | – | – | – | – | – | > 10 | 0 | – | 107 | 107 | 98.3 | 103 | 98.3 | > 10 | – | 0
5 | CCCCc1nc(C)c(CC(=S)N(C)C)c(=O)n1Cc1ccc(-c2ccccc2-c2nnn[nH]2)cc1 [fimasartan] | 98 | 95.8 | 93 | 101 | 106 | 94.9 | 99.5 | 128 | 94.4 | 115 | > 10 | > 10 | 0 | 0 | 94.2 | 89.4 | 90.8 | 96.9 | 113 | – | – | – | – | – | > 10 | 0 | – | 107 | 96.6 | 102 | 101 | 104 | > 10 | – | 0
6 | Cn1ccc2cc3c(cc21)CCN3C(=O)Nc1cccnc1 | 99.1 | 96.8 | 100 | 95.5 | 100 | – | – | – | – | – | > 10 | – | 0 | – | 88.8 | 93.2 | 98.1 | 104 | 81.3 | 105 | 114 | 95.7 | 95.3 | 100 | > 10 | 0.1 | 0 | 98.2 | 102 | 93.9 | 96 | 95.1 | > 10 | > 10 | 0
7 | CCc1ccc(CCOc2ccc(CC3SC(=O)NC3=O)cc2)nc1 (stereo not drawn) [pioglitazone] | 99 | 101 | 98.9 | 83 | 85.5 | 94.9 | 98.1 | 95.1 | 106 | 84.1 | > 10 | > 10 | 2 | 0.1 | 93.1 | 100 | 98.6 | 92.4 | 91.5 | – | – | – | – | – | > 10 | 0 | – | 94.8 | 94.7 | 96 | 97.8 | 95.8 | > 10 | – | 0
8 | O[C@@H](CN1CCNCC1)Cn1c2ccc(Br)cc2c2cc(Br)ccc21 [BAX-channel-blocker] | 101 | 96.5 | 96.1 | 92.9 | 0.2 | – | – | – | – | – | 2.59 | – | 6.6 | – | 100 | 104 | 93.6 | 87.7 | 10.4 | 91.2 | 102 | 90.4 | 95 | 0.2 | 2.06 | 7 | 6.3 | 97.6 | 102 | 97.8 | 93.9 | 3.8 | 2.66 | 2.78 | 6.3
9 | NC(=O)OCCCc1ccccc1 [phenprobamate] | – | – | – | – | – | – | – | – | – | – | – | – | – | – | 104 | 95.4 | 99.1 | 102 | 104 | 105 | 109 | 95 | 98.6 | 112 | > 10 | 0 | 0 | 102 | 98.6 | 103 | 102 | 98.9 | > 10 | > 10 | 0

From the supplement of paper PMC13380429
